Experimental data taken from PubChem BioAssay (NCI).
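Briefly, cells in 96-well plates were exposed to five compound concentrations for 48 h, and endpoints were estimated by linear interpolation. Abbreviation: GI50, concentration required for 50% inhibition of growth. TGI: concentration producing complete growth inhibition.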

Columns and labels:
Assay in all cases: NCI tumour cell line growth inhibition, 48 h; in the data active means GI50 below about 0.43 µM; inactive means the rest
[1] = test system: 786-0 renal
[2] = test system: A498 renal
[3] = test system: A549 NSCLC
[4] = test system: ACHN renal
[5] = test system: BT-549 breast
[6] = test system: CAKI-1 renal
[7] = test system: CCRF-CEM leukemia
[8] = test system: COLO 205 colon
[9] = test system: DU-145 prostate
[10] = test system: EKVX NSCLC
[11] = test system: HCC-2998 colon
[12] = test system: HCT-116 colon
[13] = test system: HCT-15 colon
[14] = test system: HL-60(TB) leukemia
[15] = test system: HOP-62 NSCLC
[16] = test system: HOP-92 NSCLC
[17] = test system: HT29 colon
[18] = test system: IGROV1 ovarian
[19] = test system: K-562 leukemia
[20] = test system: KM12 colon
[21] = test system: LOX IMVI melanoma
[22] = test system: M14 melanoma
[23] = test system: MALME-3M melanoma
[24] = test system: MCF7 breast
[25] = test system: MDA-MB-231 breast
[26] = test system: MDA-MB-435
[27] = test system: MDA-MB-468 breast
[28] = test system: MOLT-4 leukemia
[29] = test system: NCI-H226 lung
[30] = test system: NCI-H23 lung
[31] = test system: NCI-H460 lung
[32] = test system: NCI/ADR-RES ovarian
[33] = test system: OVCAR-3 ovarian
[34] = test system: OVCAR-4 ovarian
[35] = test system: OVCAR-5 ovarian
[36] = test system: OVCAR-8 ovarian
[37] = test system: PC-3 prostate
[38] = test system: RPMI-8226 leukemia
[39] = test system: RXF 393 renal
[40] = test system: SF-268 CNS
[41] = test system: SF-295 CNS
[42] = test system: SF-539 CNS
[43] = test system: SK-MEL-2 melanoma
[44] = test system: SK-MEL-28 melanoma
[45] = test system: SK-MEL-5 melanoma
[46] = test system: SK-OV-3 ovarian
[47] = test system: SN12C renal
[48] = test system: SNB-19 CNS
[49] = test system: SNB-75 CNS
[50] = test system: SR leukemia
[51] = test system: SW-620 colon
[52] = test system: T-47D breast
[53] = test system: TK-10 renal
[54] = test system: U251 CNS
[55] = test system: UACC-257 melanoma
[56] = test system: UACC-62 melanoma
[57] = test system: UO-31 renal

COc1cc2c(cc1OC)/C(=C\c1sc(Nc3ccc(O)cc3)nc1O)C(C(=O)O)=N2
> 100000 nM: TGI [2] | TGI [3] | TGI [4] | TGI [6] | TGI [7] | TGI [10] | TGI [11] | TGI [12] | TGI [13] | TGI [18] | TGI [19] | TGI [20] | TGI [21] | TGI [23] | TGI [24] | TGI [28] | TGI [29] | TGI [31] | TGI [32] | TGI [34] | TGI [35] | TGI [36] | TGI [37] | TGI [38] | TGI [40] | TGI [44] | TGI [46] | TGI [47] | TGI [50] | TGI [51] | TGI [52] | TGI [53] | TGI [55] | TGI [56] | TGI [57]
inactive: GI50 [1] 513 nM | GI50 [2] 32100 nM | GI50 [3] 21600 nM | GI50 [4] 6530 nM | GI50 [5] 654 nM | GI50 [6] 95500 nM | GI50 [8] 1440 nM | GI50 [9] 588 nM | GI50 [10] 11200 nM | GI50 [11] 631 nM | GI50 [12] 489 nM | GI50 [13] 783 nM | GI50 [15] 620 nM | GI50 [16] 5890 nM | GI50 [17] 2830 nM | GI50 [18] 2700 nM | GI50 [20] 557 nM | GI50 [21] 501 nM | GI50 [25] 1320 nM | GI50 [27] 1120 nM | GI50 [28] 446 nM | GI50 [29] 16600 nM | GI50 [30] 815 nM | GI50 [31] 954 nM | GI50 [32] > 100000 nM | GI50 [34] 4570 nM | GI50 [35] 4510 nM | GI50 [36] 775 nM | GI50 [37] 666 nM | GI50 [38] 5170 nM | GI50 [39] 527 nM | GI50 [40] 581 nM | GI50 [41] 498 nM | GI50 [42] 456 nM | GI50 [43] 586 nM | GI50 [44] 842 nM | GI50 [45] 510 nM | GI50 [46] 817 nM | GI50 [47] 2050 nM | GI50 [48] 462 nM | GI50 [51] 449 nM | GI50 [52] 2910 nM | GI50 [53] 5730 nM | GI50 [55] 1910 nM | GI50 [56] 498 nM | GI50 [57] 4200 nM
30000 nM: TGI [22]
28400 nM: TGI [45]
2760 nM: TGI [42]
33300 nM: TGI [9]
45100 nM: TGI [1]
2950 nM: TGI [49]
986 nM: TGI [14]
16700 nM: TGI [54]
27800 nM: TGI [48]
63300 nM: TGI [25]
3210 nM: TGI [39]
389 nM: TGI [26]
59100 nM: TGI [15]
9070 nM: TGI [8]
75000 nM: TGI [5]
active: GI50 [7] 413 nM | GI50 [14] 291 nM | GI50 [19] 369 nM | GI50 [22] 376 nM | GI50 [23] 336 nM | GI50 [24] 394 nM | GI50 [26] 187 nM | GI50 [33] 287 nM | GI50 [49] 217 nM | GI50 [50] 277 nM | GI50 [54] 353 nM
86300 nM: TGI [43]
91600 nM: TGI [16]
797 nM: TGI [33]
14100 nM: TGI [41]
5290 nM: TGI [27]
26000 nM: TGI [17]
41800 nM: TGI [30]
